Results from US7419669B2, “Peptide epitopes common to antigens of the same multigene family” (Institut Gustave Roussy, priority 2002, dated 2008).
Where no end group is shown, it is not given here.

Assays:
HLA-A*0201 = molecular target: T1, HLA-A*0201 (Homo sapiens, UniProt P04439, D140Y/D185E/D98H/E176V/E277Q/G131W/G231S/I119V/I121R/I166T/I218V/L300P/L318F/N151K/N90K/P208A/P217A/Q86G/Q94H/R138H/R169H/T345S); experiment: Relative affinity (RA) of peptides for HLA-A*0201 on T2 cells, flow cytometry with BB7.2; format: binding; details: for affinity for HLA-A*0201 (in words): low affinity = RA>5 and DC50<2 hours; for RA (relative affinity for HLA-A*0201): ratio of peptide concentration to reference peptide (HIVpol 589) concentration inducing 20% of fluorescence obtained with 100 μM reference, T2 cells, lower RA = stronger binding
T1 construct: prevent the expression at their surface of newly synthesized HLA-A*0201 molecules; endogenous in cells; host or cells: human T2 cells (TAP-deficient)
Experimental: The affinity of the selected peptides for HLA-A*0201 was defined by two parameters: the relative affinity (RA); which reflects the ability of the peptides to bind to HLA-A*0201, and the rate of dissociation of the HLA-A*0201/peptide complexes (DC50), which reflects their stability. The peptides with high affinity (RA<5 and DC50>2 hours) are potentially immunogenic, unlike the peptides with low affinity (RA>5 and DC50<2 hours).
Human T2 cells (FIRAT et al., Eur. J. Immunol., 29, 3112, 1999) (3×10^5 cells/ml), which are deficient in TAP transporters, are incubated at 37° C. for 16 hours with various concentrations (100 μM, 10 μM, 1 μM, 0.1 μM) of each test peptide in serum-free RPMI 1640 medium supplemented with 100 ng/ml of human β2-microglobulin. Next, they are washed twice and labeled with the monoclonal antibody BB7.2 (PARHAM et al., Hum. Immunol., 3, 4, 277-299, 1981) which is specific for the HLA-A*0201 molecule, and then with a goat anti-mouse Ig antibody coupled to fluorescein isothiocyanate (FITC).
The cells are then analyzed by flow cytometry. For each concentration of peptide, the specific HLA-A*0201 fluorescence is calculated as a percentage of the fluorescence obtained with 100 μM of a reference peptide (HIVpol 589; […] (SEQ ID No: 1)). The relative affinity (RA) is defined as the ratio of the concentration of each peptide that induces 20% of the fluorescence obtained with 100 μM of the reference peptide, to the concentration of the reference peptide that induces 20% of the fluorescence obtained with 100 μM of said reference peptide. The lower the relative affinity, the stronger the binding of the peptide to HLA-A*0201. The mean RA for each peptide is determined from at least three independent experiments. In all the experiments, 20% of the maximum fluorescence was obtained for 1 to 3 μM of the reference peptide.
The relative affinity (RA) of the selected variant peptides for HLA-A*0201 was measured as described in example 1.

RMAS-HHD cells = experiment: Intracellular IFNγ production of CTL line 1R5 with peptide-loaded RMAS-HHD cells; format: cell-based, murine; details: for response of CD8+ cells of CTL line 1R5 to RMAS-HHD cells loaded with the peptide: intracellular IFNγ production
Experimental: The response of the cells of the CTL line 1R5 with respect to the RMAS-HHD cells loaded with the various peptides was also evaluated by assaying the intracellular IFNγ production.
For this, the cells of the CTL line 1R5 are incubated in the presence of RMAS-HHD cells loaded with the variant peptide p911Y1V9, the native peptides HER1 911, HER2,3 911 or HER4 911, or an irrelevant peptide, and in the presence of 20 μg/ml of Brefeldine-A (Sigma). After 6 hours, the cells are washed, labeled with an anti-CD8 antibody conjugated to r-phycoerythrin, and incubated in PBS for 25 min at 4° C. They are then again washed, before being fixed with a 4% paraformaldehyde solution. The cells are then permeabilized with saponin (Sigma) at 0.2% in PBS, and labeled with an anti-IFNγ monoclonal antibody conjugated to allophycocyanin (Pharmingen).
(§1) The cells are then analyzed by flow cytometry (FACSCalibur™ (Becton Dickinson) and CellQuest™ software).

RMAS-HHD target cells = experiment: Cytotoxicity assay with CTL lines 1R5 and 2R5 (HHD mice immunized with p911Y1V9) on peptide-loaded RMAS-HHD target cells; format: cell-based, murine; details: for CTL response (specific lysis) to RMAS-HHD cells loaded with the peptide: CTL lines 1R5 and 2R5 induced with p911Y1V9, 10 μM peptide
Experimental: Two CTL lines, called 1R5 and 2R5, were established from the spleen cells of HHD mice immunized with the variant peptide p911Y1V9, according to the same protocol as that described in example 1.
Cytotoxicity assays were carried out as described in example 2. For this, RMAS-HHD target cells loaded with 10 μM of the test peptides (variant or native peptides) were incubated in the presence of cells of the two CTL lines 1R5 and 2R5.
The percentage specific lysis values observed in the presence of the 1R5 (□) and 2R5 (▪) lines and for the various peptides tested are given in FIG. 5.

HHD transgenic mice = experiment: Induction of specific CTLs in HHD transgenic mice by immunization with variant MAGE-A peptides; 51Cr cytotoxicity on peptide-loaded RMAS-HHD targets; format: in vivo; details: for recognition of RMAS-HHD targets loaded with the native peptide by CTLs induced with the corresponding variant: native peptide loaded on targets
Experimental: The immunogenicity of the variant peptides p174Y1V10, p262L2 and p248V9 was evaluated by generation of CTLs on HHD transgenic mice (PASCOLO et al., J. Exp. Med., 185, 2043, 1997). These mice are β2m−/−, D^b−/− and express an HLA-A*0201 single chain made up of the α1 and α2 domains of HLA-A*0201 and the α3 and intracellular domains of D^b, linked via its N-terminal to the C-terminal of human β2-microglobulin, via a peptide of 15 amino acids.
The HHD mice are given a subcutaneous injection at the base of the tail with 100 μg of each variant peptide to be tested, emulsified in Freund's incomplete adjuvant, in the presence of 140 μg of a T-helper epitope derived from the HBV “core” antigen (128-140, sequence […]).
After 11 days, spleen cells taken from the mice (5×10^7 cells in 10 ml) are stimulated in vitro with the test peptide (10 μM). On the 6th day of culture, the populations which respond are tested in order to determine a specific cytotoxicity. The cells which respond are restimulated in vitro at one-week intervals with 2×10^7 irradiated (3000 rads) HHD spleen cells and 1 to 0.1 μM of peptide in the presence of 50 IU/ml of recombinant IL2 (Proleukin, Chiron Corp).
Cytotoxicity assays are carried out 6 days after the final stimulation.
RMAS-HHD cells are used as targets to study the cytotoxicity. The cells are obtained by transfection of murine RMAS cells with the HHD construct as described by PASCOLO et al. (J. Exp. Med., 185, 2043, 1997).
These target cells are labeled with 100 μCi of ^51Cr for 90 minutes, and then washed three times and plated out in round-bottomed 96-well plates (3×10^3 cells/well in 100 μl of RPMI 1640+3% of fetal calf serum). They are loaded with various concentrations of test peptide (variant, native peptide, or irrelevant control peptide), at 37° C. for 90 minutes.
Next, 100 μl of the effector cells (effector cell/target cell ratio=40/1) are added to the wells and the plates are incubated at 37° C. for 4 hours. After incubation, 100 μl of supernatant are collected and the radioactivity is measured in a γ-counter.
The percentage of specific lysis is calculated by means of the formula: [(experimental ^51Cr release−spontaneous ^51Cr release)/(maximum ^51Cr release−spontaneous ^51Cr release)]×100. In all the experiments, the spontaneous release is less than 20% of the maximum release induced with 3N HCl.

[1] = tested on: CD8+ cells from normal donors; experiment: Induction of specific human CTLs in vitro from PBMCs of normal donors with p248V9, intracellular IFNγ production; format: cell-based; details: intracellular IFNγ production
Experimental: The ability of p248V9 to induce CTLs in vitro using peripheral blood mononuclear cells (PBMCs) from normal donors was tested as follows.
The PBMCs are obtained, from blood samples taken by leukocytapheresis on normal donors, after centrifugation at 2000 rpm for 20 min on a Ficoll/Hypaque (Amersham) gradient. After 3 washes in 0.9% NaCl, they are resuspended in complete medium (RPMI 1640 supplemented with 10% of heat-inactivated human AB serum, 40 μg/ml of gentamicin (Panpharma) and […] of L-glutamine (Gibco)), and incubated at 37° C. for 2 hours. After incubation, the non-adherent cells are removed. The adherent cells are differentiated into dendritic cells by culturing in a Teflon bag in a proportion of 3×10^6 cells/ml in complete medium supplemented with 500 IU/ml of GM-CSF (R & D Systems) and 500 IU/ml of IL-4 (R & D Systems). On the seventh day, maturing agents (100 ng/ml of polyI:C and 2 μg/ml of anti-CD40 antibody) are added to the culture. After 24 hours, the mature dendritic cells are loaded with the peptide p248V9 by incubation for 2 hours with 10 μM of peptide in the presence of 5 μg/ml of β2-microglobulin, and then irradiated at 3500 rads; they are then washed in order to remove the free peptide. CD8+ cells are isolated from the non-adherent cells by means of microbeads coupled to an anti-CD8 antibody (Miltenyi Biotec).
2×10^5 CD8+ cells are stimulated with 2×10^4 dendritic cells loaded with the peptide, in complete medium supplemented with 1000 IU/ml of IL-6 and 5 IU/ml of IL-12 in a final volume of 100 μl/well in a 96-well plate. From the seventh day, the cultures are stimulated in vitro each week with the dendritic cells loaded with the peptide, in the presence of 20 IU/ml of IL-2 and 10 ng/ml of IL-7. After the third restimulation, the CD8+ cells are collected and stimulated with EBV-transformed HLA-A*0201 allogenic B cells, in a 1/2 ratio, in the presence of 10 μM of peptide, for 16 hours.
The IFNγ-producing CD8+ cells are purified using a commercial kit (IFNγ secretion assay-cell enrichment and detection kit, Miltenyi Biotech). The cells thus purified are cultured for one week in complete medium supplemented with 20 IU/ml of IL-2 and 10 ng/ml of IL-7.
The response of these CD8+ cells to T2 cells loaded with one of the peptides p248V9, p248G9 or p248D9, or with a irrelevant peptide (HIVgag76), or to HLA-A*0201+MAGE-A+ tumor cells (M44 and M113) or HLA-A*0201+MAGE-A^− tumor cells (Caco-2), is evaluated by assaying the intracellular IFNγ production.
The CD8+ cells are incubated with the cells of the tumor line tested, in the presence of 20 μg/ml of Brefeldine-A (Sigma). […]
as §1

| Sequence | response of CD8+ cells of CTL line 1R5 to RMAS-HHD cells loaded with the peptide (RMAS-HHD cells) | CTL response (specific lysis) to RMAS-HHD cells loaded with the peptide (RMAS-HHD target cells) | RA (relative affinity for HLA-A*0201) (HLA-A*0201) | also measured |
| --- | --- | --- | --- | --- |
| CLGLSYDGLL [p174] | – | – | – | affinity for HLA-A*0201 (in words) (HLA-A*0201): low affinity |
| TIWELMTFGG (listed as Homo sapiens) [HER4 911] | response of the CD8+ cells of the CTL line 1R5 | induce a CTL response | – | – |
| TVWELMTFGA (listed as Homo sapiens) [HER2,3 911] | response of the CD8+ cells of the CTL line 1R5 | induce a CTL response | – | – |
| TVWELMTFGS (listed as Homo sapiens) [HER1 911] | response of the CD8+ cells of the CTL line 1R5 | induce a CTL response | – | – |
| YICTIDVYMV (not fully specified) [p945Y1V9] | – | – | >100 | – |
| YLAARNVLV (not fully specified) [p845Y] | – | – | >100 | – |
| YLEYRQVPD (listed as Homo sapiens) [p248D9] | – | – | – | recognition of RMAS-HHD targets loaded with the native peptide by CTLs induced with the corresponding variant (HHD transgenic mice): also against the two native peptides; affinity for HLA-A*0201 (in words) (HLA-A*0201): low affinity; response of p248V9-induced human CD8+ cells to T2 cells loaded with the peptide [1]: a response of the CD8+ cells |
| YLEYRQVPG (listed as Homo sapiens) [p248G9] | – | – | – | recognition of RMAS-HHD targets loaded with the native peptide by CTLs induced with the corresponding variant (HHD transgenic mice): also against the two native peptides; affinity for HLA-A*0201 (in words) (HLA-A*0201): low affinity; response of p248V9-induced human CD8+ cells to T2 cells loaded with the peptide [1]: a response of the CD8+ cells |
| YLFLWGPRA (not fully specified) [p262L2] | – | – | – | CTL response generated by immunization with the variant peptide (HHD transgenic mice; HHD mice, 100 μg s.c. in Freund's incomplete adjuvant, RMAS-HHD targets, effector/target 40/1): induces CTLs capable of recognizing this peptide, but not the native p262 peptide |
| YLLEKGERL (not fully specified) [p933Y] | – | – | >100 | – |
| YVKVLGSGV (not fully specified) [p722Y1V9] | – | – | >100 | – |
| YVWELMTFGV (not fully specified) [p911Y1V9] | response of the CD8+ cells of the CTL line 1R5 | induce a CTL response | – | CTLs induced by the variant peptide, recognition by IFNγ production (RMAS-HHD cells; CTL line 1R5): induces CTLs capable of recognizing this variant peptide, but also the native peptides from which it is derived; CTLs generated by the variant peptide, killing of loaded RMAS-HHD target cells (RMAS-HHD target cells; CTL lines 1R5 and 2R5, targets loaded with 10 μM peptide): generates CTLs which kill the RMAS-HHD target cells loaded with the variant peptide p911Y1V9, but also with the native peptides HER1 911, HER2,3 911 or HER4 911 |
| YVWSYGVTV (not fully specified) [p904Y] | – | – | >100 | – |
